Reference: US20230159510A1, “NOVEL PRMT5 INHIBITORS” (AMGEN INC., priority 2020, published 2023)
pIC50: −log10 of the molar value.

Columns and labels:
[1] = test system: HCT116 WT cells; experiment: HCT116 proliferation assay, WT cells (CellTiter-Glo, 6 days); assay type: cell-based; settings: Homo sapiens, HCT-116, 144 h, read-out: Prolif_HCT116-WT IC50
Description: (§1) HCT116 MTAP null and WT cells were seeded in 96-well tissue culture plates in RPMI 1640 media + 10% fetal bovine serum. Plates were incubated overnight at 37° C. and 5% CO2. Cells were then treated with a 8- or 9-point serial dilution of compound, using a top concentration of 1 or 10 µM, 1:3 serial dilution steps and, a DMSO-only control. Cells were incubated in the presence of drug for 6 days. Effects on cell viability were measured with the CellTiter-Glo® Luminescent Cell Viability Assay (Promega) per manufacturer’s recommendation. Assay plates were read on an EnVision™ Multilabel Reader using the Ultra-Sensitive luminescence module.

[2] = test system: HCT116 MTAP null cells; experiment: HCT116 proliferation assay, MTAP null cells (CellTiter-Glo, 6 days); assay type: cell-based; settings: HCT116-MTAP null, 144 h, read-out: Protif_ HCT116-MTAP null IC50
Description: as §1

SMILES	pIC50 [1]	pIC50 [2]
Cc1cc2cc(C(=O)N(Cc3ccc4[nH]c(=O)[nH]c4c3)Cc3ccnc4[nH]ccc34)ccc2nc1N [Example 589, N-((1H-pyrrolo[2,3-b]pyridin-4-yl)methyl)-2-amino-3-methyl-N-((2-oxo-2,3-dihydro-1H-benzo [d]imidazol-5-yl)methyl)quinoline-6-carboxamide]	< 6.00	6.26
CCOc1ccc(CN(C(=O)c2ccc3nc(N)c(Br)cc3c2)[C@H](C)c2ncccn2)nn1 [Example 729, 2-amino-3-bromo-N-((6-ethoxy-3-pyridazinyl)methyl)-N-((1R)-1-(2-pyrimidinyl)ethyl)-6-quinolinecarboxamide]	5.16	6.94
COC[C@H](C1CC1)N(Cc1ccc(N2CCOCC2)nn1)C(=O)c1ccc2nc(N)c(Br)cc2c1 [Example 732, 2-amino-3-bromo-N-((1S)-1-cyclopropyl-2-methoxyethyl)-N-((6-(4-morpholinyl)-3-pyridazinyl)methyl)-6-quinolinecarboxamide]	< 5.00	6.64
COc1ccc(CN(C(=O)c2cnc3nc(N)c(Br)cc3c2)[C@H](C)c2ncccc2F)nn1 [Example 735, 7-amino-6-bromo-N-((1R)-1-(3-fluoro-2-pyridinyl)ethyl)-N-((6-methoxy-3-pyridazinyl)methyl)-1,8-naphthyridine-3-carboxamide]	< 5.00	6.66
COc1ccc(CN(C(=O)c2ccc3nc(N)c(Br)cc3c2)[C@H](C)c2ncccc2F)nn1 [Example 736, 2-amino-3-bromo-N-((1R)-1-(3-fluoro-2-pyridinyl)ethyl)-N-((6-methoxy-3-pyridazinyl)methyl)-6-quinolinecarboxamide]	5.16	6.82
N#Cc1ccc(CN(C(=O)c2ccc3nc(N)c(Br)cc3c2)[C@@H](c2ncccn2)C2CC2)nc1 [Example 738, 2-amino-3-bromo-N-((5-cyano-2-pyridinyl)methyl)-N-((R)-cyclopropyl(2-pyrimidinyl)methyl)-6-quinolinecarboxamide]	5.37	6.76
C[C@H](c1ncccn1)N(Cc1ccc(Br)nn1)C(=O)c1ccc2nc(N)c(Br)cc2c1 [Example 740, (R)-2-amino-3-bromo-N-((6-bromopyridazin-3-yl)methyl)-N-(1-(pyrimidin-2-yl)ethyl)quinoline-6-carboxamide]	5.36	7.10
Cc1cc2cc(C(=O)N(Cc3cc4c(cn3)OCCC4)C(C)c3ncccn3)ccc2nc1N (centres unmarked) [Example 741, 2-amino-N-((3,4-dihydro-2H-pyrano[2,3-c]pyridin-6-yl)methyl)-3-methyl-N-(1-(pyrimidin-2-yl)ethyl)quinoline-6-carboxamide]	5.08	6.57
Cc1c(Br)c(N)nc2ncc(C(=O)N(Cc3ccc(C#N)cn3)[C@H](C)c3ncccn3)cc12 [Example 744, (R)-7-amino-6-bromo-N-((5-cyanopyridin-2-yl)methyl)-5-methyl-N-(1-(pyrimidin-2-y 1)ethy 1)-1 ,8-naphthyridine-3-carboxamide]	5.38	6.73
C[C@H](c1ncccn1)N(Cc1cc(Cl)c(C#N)cn1)C(=O)c1ccc2nc(N)c(Br)cc2c1 [Example 745, (R)-2-amino-3-bromo-N-((4-chloro-5-cyanopyridin-2-yl)methyl)-N-(1-(pyrimidin-2-yl)ethyl)quinoline-6-carboxamide]	5.91	6.65
C[C@H](c1ncccn1)N(Cc1ccc(OC(F)F)nn1)C(=O)c1ccc2nc(N)c(Br)cc2c1 [Example 746, (R)-2-amino-3-bromo-N-((6-(difluoromethoxy)pyridazin-3-yl)methyl)-N-(1-(pyrimidin-2-yl)ethyl)quinoline-6-carboxamide]	5.14	6.86
Cc1cc2cc(C(=O)N(Cc3ccc(Br)nn3)[C@@H]3CCCn4ncnc43)c(F)cc2nc1N [Example 757, (R)-2-amino-N-((6-bromopyridazin-3-yl)methyl)-7-fluoro-3-methyl-N-(5,6,7,8-tetrahydro-[1,2,4]triazolo[1,5-a]pyridin-8-yl)quinoline-6-carboxamide]	5.05	6.50

Now from value to molecule:

pIC50 [1]	pIC50 [2]	SMILES
< 6.00	6.12	Cc1cc2cc(C(=O)N(Cc3ccc4[nH]c(=O)[nH]c4c3)Cc3ccncc3F)ccc2nc1N [Example 588, 2-amino-N-((3-fluoropyridin-4-yl)methyl)-3-methyl-N-((2-oxo-2,3-dihydro-1H-benzo [d]imidazol-5-yl)methyl)quinoline-6-carboxamide]
< 6.00	6.39	Cc1cc2cc(C(=O)N(Cc3ccc(C(F)(F)F)cn3)CC(O)C(F)(F)F)ccc2nc1N (centres unmarked) [Example 592, 2-amino-3-methyl-N-(3,3,3-trifluoro-2-hydroxypropyl)-N-((5-(trifluoromethyl)pyridin-2-yl)methyl)quinoline-6-carboxamide]
< 6.00	6.63	Cc1cc2cc(C(=O)N(Cc3ccc(C(F)(F)F)cn3)C(C)C3CCOCC3)ccc2nc1N (centres unmarked) [Example 675, 2-amino-3-methyl-N-(1-tetrahydropyran-4-ylethyl)-N-[[5-(trifluoromethyl)-2-pyridyl]methyl] quinoline-6-carboxamide]
5.01	6.55	Cc1cc2cc(C(=O)N(Cc3ccccc3F)Cc3c[nH]c4cccnc34)ccc2nc1N [Example 711, 2-amino-N-[(2-fluorophenyl)methy1] -3-methyl-N-(1H-pyrrolo[3,2-b]pyridin-3-ylmethyl)quinoline-6-carboxamide]
5.17	6.58	Cc1cc2cc(C(=O)N(Cc3ccc(C#N)nn3)[C@H](C)c3ncccc3F)ccc2nc1N [Example 728, 2-amino-N-((6-cyano-3-pyridazinyl)methyl)-N-((1R)-1-(3-fluoro-2-pyridinyl)ethyl)-3-methyl-6-quinolinecarboxamide]
< 5.00	6.36	COC[C@@H](C)N(Cc1ccc(C#N)cn1)C(=O)c1ccc2nc(N)c(Br)cc2c1 [Example 733, 2-amino-3-bromo-N-((5-cyano-2-pyridinyl)methyl)-N-((2R)-1-methoxy-2-propanyl)-6-quinolinecarboxamide]
< 5.00	6.00	Cc1cc2cc(C(=O)N(CCOC(F)(F)F)Cc3ccc(C(F)(F)F)cn3)ccc2nc1N [Example 734, 2-amino-3-methyl-N-(2-(trifluoromethoxy)ethyl)-N-((5-(trifluoromethyl)-2-pyridinyl)methyl)-6-quinolinecarboxamide]
5.17	6.83	C[C@H](c1ncccc1F)N(Cc1ccc(C(F)(F)F)nn1)C(=O)c1ccc2nc(N)c(Br)cc2c1 [Example 737, 2-amino-3-bromo-N-((1R)-1-(3-fluoro-2-pyridinyl)ethyl)-N-((6-(trifluoromethyl)-3-pyridazinyl)methyl)-6-quinolinecarboxamide]
< 5.00	6.45	C[C@H](c1ncccc1F)N(Cc1ccc(Br)nn1)C(=O)c1ccc2nc(N)c(Cl)cc2c1 [Example 739, 2-amino-N-((6-bromo-3-pyridazinyl)methyl)-3-chloro-N-((1R)-1-(3-fluoro-2-pyridinyl)ethyl)-6-quinolinecarboxamide]
5.93	7.40	Cc1cc2cc(C(=O)N(Cc3ccc(OC(F)F)nn3)C(C)c3ncccn3)ccc2nc1N (centres unmarked) [Example 742, 2-amino-N-((6-(difluoromethoxy)pyridazin-3-yl)methyl)-3-methyl-N-(1-(pyrimidin-2-yl)ethyl)quinoline-6-carboxamide]
6.16	7.27	Cc1c(Br)c(N)nc2ncc(C(=O)N(Cc3ccc(C(F)(F)F)cn3)[C@H](C)c3ncccn3)cc12 [Example 743, (R)-7-amino-6-bromo-5-methyl-N-(1-(pyrimidin-2-yl)ethyl)-N-((5-(trifluoromethyl)pyridin-2-yl)methyl)-1,8-naphthyridine-3-carboxamide]
5.50	6.75	Cc1cc2cc(C(=O)N(Cc3ccc(C#N)c(C)n3)[C@H](C)c3ncccn3)ccc2nc1N [Example 750, 2-amino-N-((5-cyano-6-methyl-2-pyridinyl)methyl)-3-methyl-N-((1R)-1-(2-pyrimidinyl)ethyl)-6-quinolinecarboxamide]
5.76	6.84	CO[C@@H]1Cc2ccccc2[C@H]1N(Cc1ccc(C(F)(F)F)cn1)C(=O)c1ccc2nc(N)c(C)cc2c1 [Example 751, 2-amino-N-((1R,2R)-2-methoxy-2,3-dihydro-1H-inden-1-yl)-3-methyl-N-((5-(trifluoromethyl)-2-pyridinyl)methyl)-6-quinolinecarboxamide]
5.76	6.92	CO[C@H]1Cc2ccccc2[C@@H]1N(Cc1ccc(C(F)(F)F)cn1)C(=O)c1ccc2nc(N)c(C)cc2c1 [Example 752, 2-amino-N-((1S,2S)-2-methoxy-2,3-dihydro-1H-inden-1-yl)-3-methyl-N-((5-(trifluoromethyl)-2-pyridinyl)methyl)-6-quinolinecarboxamide]
5.39	6.89	CC(=O)c1ccc(CN(C(=O)c2ccc3nc(N)c(C)cc3c2)[C@H](C)c2ncccn2)nc1 [Example 754, N-((5-acetyl-2-pyridinyl)methyl)-2-amino-3-methyl-N-((1R)-1-(2-pyrimidinyl)ethyl)-6-quinolinecarboxamide]
5.23	6.64	COc1ccc(CN(C(=O)c2ccc3nc(N)c(C)cc3c2)C(C)c2ncn(C)n2)nn1 (centres unmarked) [Example 756, 2-amino-N-((6-methoxypyridazin-3-yl)methyl)-3-methyl-N-(1-(1-methyl-1H-1,2,4-triazol-3-yl)ethyl)quinoline-6-carboxamide]
